# pIC50: −log10 of the molar value.
# Biological target: Nav 1.7 (Homo sapiens (Human), UniProt Q15858)
# Assay: in-vitro Nav 1.7 PX (IC50)
# Assay type: cell-based
# Conditions: not given
# Chain of Nav 1.7 (Q15858 whole entry): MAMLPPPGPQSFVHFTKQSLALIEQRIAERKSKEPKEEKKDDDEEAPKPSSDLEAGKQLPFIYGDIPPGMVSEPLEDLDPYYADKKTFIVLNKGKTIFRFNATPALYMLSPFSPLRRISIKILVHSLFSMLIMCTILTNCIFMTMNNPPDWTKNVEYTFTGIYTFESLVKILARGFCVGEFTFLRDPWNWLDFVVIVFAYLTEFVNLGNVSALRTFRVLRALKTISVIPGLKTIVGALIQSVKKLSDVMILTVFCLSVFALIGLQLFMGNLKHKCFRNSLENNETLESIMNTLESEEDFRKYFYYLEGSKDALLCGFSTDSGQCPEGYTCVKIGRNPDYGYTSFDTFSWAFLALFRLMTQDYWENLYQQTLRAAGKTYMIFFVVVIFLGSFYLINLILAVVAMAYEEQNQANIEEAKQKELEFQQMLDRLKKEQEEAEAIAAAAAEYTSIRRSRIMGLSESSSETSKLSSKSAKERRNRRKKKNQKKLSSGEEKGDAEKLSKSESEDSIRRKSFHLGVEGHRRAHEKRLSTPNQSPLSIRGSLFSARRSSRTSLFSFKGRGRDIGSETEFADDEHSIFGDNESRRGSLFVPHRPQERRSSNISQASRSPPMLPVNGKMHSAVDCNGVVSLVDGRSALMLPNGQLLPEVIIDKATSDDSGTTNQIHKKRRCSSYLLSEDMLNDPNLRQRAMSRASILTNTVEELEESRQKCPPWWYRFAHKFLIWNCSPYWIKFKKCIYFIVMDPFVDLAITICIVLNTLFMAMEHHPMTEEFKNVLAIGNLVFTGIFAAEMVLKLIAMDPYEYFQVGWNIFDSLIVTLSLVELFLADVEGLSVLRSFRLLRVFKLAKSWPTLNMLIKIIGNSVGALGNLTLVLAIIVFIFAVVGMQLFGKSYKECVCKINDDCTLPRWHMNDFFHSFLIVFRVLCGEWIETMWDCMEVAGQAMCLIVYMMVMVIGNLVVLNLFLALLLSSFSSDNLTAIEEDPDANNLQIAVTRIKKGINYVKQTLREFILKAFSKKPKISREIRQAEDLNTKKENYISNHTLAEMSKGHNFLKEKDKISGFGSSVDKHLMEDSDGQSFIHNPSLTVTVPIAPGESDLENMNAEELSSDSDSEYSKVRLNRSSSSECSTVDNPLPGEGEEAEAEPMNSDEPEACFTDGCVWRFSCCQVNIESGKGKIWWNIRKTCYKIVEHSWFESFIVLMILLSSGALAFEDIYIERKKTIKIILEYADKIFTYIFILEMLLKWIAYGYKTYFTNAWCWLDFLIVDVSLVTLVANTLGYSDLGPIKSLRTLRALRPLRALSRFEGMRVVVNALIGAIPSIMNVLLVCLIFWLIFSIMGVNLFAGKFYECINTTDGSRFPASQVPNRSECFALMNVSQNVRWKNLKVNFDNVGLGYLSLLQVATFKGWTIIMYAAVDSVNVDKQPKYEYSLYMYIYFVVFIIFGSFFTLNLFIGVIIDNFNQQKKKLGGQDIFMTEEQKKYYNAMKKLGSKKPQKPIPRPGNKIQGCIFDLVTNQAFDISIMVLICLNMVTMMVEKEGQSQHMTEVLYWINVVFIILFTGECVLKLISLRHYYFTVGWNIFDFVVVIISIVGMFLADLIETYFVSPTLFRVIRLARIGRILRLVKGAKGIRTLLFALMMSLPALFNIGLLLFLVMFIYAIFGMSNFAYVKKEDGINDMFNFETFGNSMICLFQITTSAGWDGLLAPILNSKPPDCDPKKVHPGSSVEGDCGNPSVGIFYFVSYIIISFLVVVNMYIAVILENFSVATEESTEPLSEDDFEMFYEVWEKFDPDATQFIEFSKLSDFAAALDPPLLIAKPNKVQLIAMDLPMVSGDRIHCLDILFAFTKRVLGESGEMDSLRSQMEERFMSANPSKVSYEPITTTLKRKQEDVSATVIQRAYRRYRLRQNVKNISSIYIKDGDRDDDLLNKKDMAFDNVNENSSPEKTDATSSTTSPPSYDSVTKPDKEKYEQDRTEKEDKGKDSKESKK
row,Compound,pIC50
1,"O=c1ccc2cc(S(=O)(=O)Nc3ccon3)ccc2n1-c1cc(F)c(-c2cc(F)cc(F)c2)cc1OC1CNC1 [Example 670, 1-(5-(azetidin-3-yloxy)-2,3′,5′-trifluoro-[1,1′-biphenyl]-4-yl)-N-(isoxazol-3-yl)-2-oxo-1,2-dihydroquinoline-6-sulfonamide 2,2,2-trifluoroacetate]",7.41

# Same assay, conditions: in-vitro Nav 1.7 PX data
row,Compound,pIC50
1,"COc1cc(C#CC(F)(F)F)c(F)cc1-n1c(=O)ccc2cc(S(=O)(=O)Nc3ccon3)ccc21 [Example 644, 1-(5-fluoro-2-methoxy-4-(3,3,3-trifluoro-1-PROPYN-1-yl)phenyl)-N-3-isoxazolyl-2-oxo-1,2-dihydro-6-quinolinesulfonamide]",6.41
2,"COc1nc(C#CC2CCCC2)c(Cl)cc1-n1c(=O)ccc2cc(S(=O)(=O)Nc3cccnn3)ccc21 [Example 646, 1-(5-chloro-6-(cyclopentylethynyl)-2-methoxy-3-pyridinyl)-2-oxo-N-3-pyridazinyl-1,2-dihydro-6-quinolinesulfonamide]",5.96
3,"COc1nc(NC2CCCC2)c(Cl)cc1-n1c(=O)ccc2cc(S(=O)(=O)Nc3ccon3)ccc21 [Example 648, 1-(5-chloro-6-(cyclopentylamino)-2-methoxy-3-pyridinyl)-N-3-isoxazolyl-2-oxo-1,2-dihydro-6-quinolinesulfonamide]",6.01
4,"COc1cc(-c2ccc(Cl)c(C)c2)ccc1-n1c(=O)ccc2cc(S(=O)(=O)Nc3cnccn3)ccc21 [Example 659, 1-(4′-chloro-3-methoxy-3′-methyl-4-biphenylyl)-2-oxo-N-2-pyrazinyl-1,2-dihydro-6-quinolinesulfonamide]",7.46
5,"CC(C#N)Oc1cc(-c2cc(F)cc(F)c2)c(F)cc1-n1c(=O)ccc2cc(S(=O)(=O)Nc3ccon3)ccc21 (centres unmarked) [Example 681, 1-(5-(1-cyanoethoxy)-2,3′,5′-trifluoro-[1,1′-biphenyl]-4-yl)-N-(isoxazol-3-yl)-2-oxo-1,2-dihydroquinoline-6-sulfonamide]",6.34
6,"COc1ccc(-c2cc(OC)c(-n3c(=O)ccc4cc(S(=O)(=O)Nc5ccon5)ccc43)cc2F)c(Cl)c1 [Example 699, 1-(2′-chloro-2-fluoro-4′,5-dimethoxy-4-biphenylyl)-N-3-isoxazolyl-2-oxo-1,2-dihydro-6-quinolinesulfonamide]",7.43
7,"COc1cc(-c2ccccc2)c(F)cc1-n1c(=O)ccc2cc(S(=O)(=O)Nc3ccon3)ccc21 [Example 701, 1-(2-fluoro-5-methoxy-4-biphenylyl)-N-3-isoxazolyl-2-oxo-1,2-dihydro-6-quinolinesulfonamide]",6.98
8,"COc1ccc(-c2cc(OC)c(-n3c(=O)ccc4cc(S(=O)(=O)Nc5ccon5)ccc43)cc2F)c(F)c1 [Example 702, 1-(2,2′-difluoro-4′,5-dimethoxy-4-biphenylyl)-N-3-isoxazolyl-2-oxo-1,2-dihydro-6-quinolinesulfonamide]",7.66
9,"COc1cc(-c2cccc(Cl)c2F)c(F)cc1-n1c(=O)ccc2cc(S(=O)(=O)Nc3ccon3)ccc21 [Example 703, 1-(3′-chloro-2,2′-difluoro-5-methoxy-4-biphenylyl)-N-3-isoxazolyl-2-oxo-1,2-dihydro-6-quinolinesulfonamide]",8.30
10,"COc1cc(-c2cc(Cl)ccc2F)c(F)cc1-n1c(=O)ccc2cc(S(=O)(=O)Nc3ccon3)ccc21 [Example 707, 1-(5′-chloro-2,2′-difluoro-5-methoxy-4-biphenylyl)-N-3-isoxazolyl-2-oxo-1,2-dihydro-6-quinolinesulfonamide]",7.92

# Other lines, results leading:
row,pIC50,Compound
1,8.30,"COc1cc(-c2cc(OC)c(-n3c(=O)ccc4cc(S(=O)(=O)Nc5ccon5)ccc43)cc2F)ccc1Cl [Example 700, 1-(4′-chloro-2-fluoro-3′,5-dimethoxy-4-biphenylyl)-N-3-isoxazolyl-2-oxo-1,2-dihydro-6-quinolinesulfonamide]"
2,7.80,"COc1cc(-c2ccc(C)c(C)c2)c(F)cc1-n1c(=O)ccc2cc(S(=O)(=O)Nc3ccon3)ccc21 [Example 704, 1-(2-fluoro-5-methoxy-3′,4′-dimethyl-4-biphenylyl)-N-3-isoxazolyl-2-oxo-1,2-dihydro-6-quinolinesulfonamide]"
3,7.39,"COc1ccc(-c2cc(OC)c(-n3c(=O)ccc4cc(S(=O)(=O)Nc5ccon5)ccc43)cc2F)cc1F [Example 705, 1-(2,3′-difluoro-4′,5-dimethoxy-4-biphenylyl)-N-3-isoxazolyl-2-oxo-1,2-dihydro-6-quinolinesulfonamide]"
4,7.85,"COc1cc(-c2cc(C)cc(C)c2)c(F)cc1-n1c(=O)ccc2cc(S(=O)(=O)Nc3ccon3)ccc21 [Example 706, 1-(2-fluoro-5-methoxy-3′,5′-dimethyl-4-biphenylyl)-N-3-isoxazolyl-2-oxo-1,2-dihydro-6-quinolinesulfonamide]"
5,8.00,"COc1cc(C)cc(-c2cc(OC)c(-n3c(=O)ccc4cc(S(=O)(=O)Nc5ccon5)ccc43)cc2F)c1 [Example 708, 1-(2-fluoro-3′,5-dimethoxy-5′-methyl-4-biphenylyl)-N-3-isoxazolyl-2-oxo-1,2-dihydro-6-quinolinesulfonamide]"
6,7.33,"COc1cccc(-c2cc(OC)c(-n3c(=O)ccc4cc(S(=O)(=O)Nc5ccon5)ccc43)cc2F)c1 [Example 709, 1-(2-fluoro-3′,5-dimethoxy-4-biphenylyl)-N-3-isoxazolyl-2-oxo-1,2-dihydro-6-quinolinesulfonamide]"
7,7.85,"COc1cc(F)cc(-c2cc(OC)c(-n3c(=O)ccc4cc(S(=O)(=O)Nc5ccon5)ccc43)cc2F)c1 [Example 710, 1-(2,3′-difluoro-5,5′-dimethoxy-4-biphenylyl)-N-3-isoxazolyl-2-oxo-1,2-dihydro-6-quinolinesulfonamide]"
8,8.05,"COc1cc(-c2cc(F)cc(C(F)(F)F)c2)c(F)cc1-n1c(=O)ccc2cc(S(=O)(=O)Nc3ccon3)ccc21 [Example 711, 1-(2,3′-difluoro-5-methoxy-5′-(trifluoromethyl)-4-biphenylyl)-N-3-isoxazolyl-2-oxo-1,2-dihydro-6-quinolinesulfonamide]"
9,8.22,"COc1cc(-c2cccc(Cl)c2C)c(F)cc1-n1c(=O)ccc2cc(S(=O)(=O)Nc3ccon3)ccc21 [Example 712, 1-(3′-chloro-2-fluoro-5-methoxy-2′-methyl-4-biphenylyl)-N-3-isoxazolyl-2-oxo-1,2-dihydro-6-quinolinesulfonamide]"
10,7.82,"COc1cc(-c2cc(OC)c(-n3c(=O)ccc4cc(S(=O)(=O)Nc5ccon5)ccc43)cc2F)ccc1F [Example 713, 1-(2,4′-difluoro-3′,5-dimethoxy-4-biphenylyl)-N-3-isoxazolyl-2-oxo-1,2-dihydro-6-quinolinesulfonamide]"

# Same assay, conditions: in-vitro Nav 1.7 PX data (PatchXpress)
row,pIC50,Compound
1,5.25,"O=c1ccc2cc(S(=O)(=O)Nc3ccon3)ccc2n1-c1cc(F)c(Br)cc1OC1CCNC1 (centres unmarked) [Example 625, 1-(4-bromo-5-fluoro-2-(PYRROLIDIN-3-YLOXY)phenyl)-N-(isoxazol-3-yl)-2-oxo-1,2-dihydroquinoline-6-sulfonamide]"
2,4.59,"CC(C#N)Oc1cc(Br)c(F)cc1-n1c(=O)ccc2cc(S(=O)(=O)Nc3ccon3)ccc21 (centres unmarked) [Example 680, 1-(4-bromo-2-(1-cyanoethoxy)-5-fluorophenyl)-N-(isoxazol-3-yl)-2-oxo-1,2-dihydroquinoline-6-sulfonamide]"
